“And” between values parts separate entries of the source, which are not always exact repeats. Identical values can stand only once. Toxic doses and inconclusive results are not listed. How the source made its calls: active means survival T/C of 150% or more; inactive means T/C below 125% in these data. Residues, ends and D or L forms follow the SMILES beside them. *: point of attachment. Trt = c1ccc(C(c2ccccc2)(c2ccccc2)*)cc1; Boc = CC(C)(C)OC(=O)*
Test system: CD2F1 mice, L1210 leukemia ip, survival T/C
Assay: NCI In Vivo Anticancer Drug Screen. Data for tumor model L1210 Leukemia (intraperitoneal) in CD2F1 (CDF1) mice
Details: higher = longer survival
Method in brief: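 Each value reflects a quotient of treated over vehicle control outcomes in mice with a transplanted tumor.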

[1] = endpoint: mean survival time, dose: 100.0 mg/kg/injection, schedule: Q01DX009 (ip), vehicle: saline with Tween-80
[2] = endpoint: mean survival time, dose: 200.0 mg/kg/injection, schedule: Q01DX009 (ip), vehicle: saline with Tween-80
[3] = endpoint: mean survival time, dose: 400.0 mg/kg/injection, schedule: Q01DX009 (ip), vehicle: saline with Tween-80
[4] = endpoint: mean survival time, dose: 100.0 mg/kg/injection, schedule: Q04DX002 (ip), vehicle: saline with Tween-80
[5] = endpoint: mean survival time, dose: 200.0 mg/kg/injection, schedule: Q04DX002 (ip), vehicle: saline with Tween-80
[6] = endpoint: mean survival time, dose: 400.0 mg/kg/injection, schedule: Q04DX002 (ip), vehicle: saline with Tween-80
[7] = endpoint: mean survival time, dose: 100.0 mg/kg/injection, schedule: Q04DX003 (ip), vehicle: saline with Tween-80
[8] = endpoint: mean survival time, dose: 200.0 mg/kg/injection, schedule: Q04DX003 (ip), vehicle: saline with Tween-80
[9] = endpoint: mean survival time, dose: 400.0 mg/kg/injection, schedule: Q04DX003 (ip), vehicle: saline with Tween-80
[10] = endpoint: mean survival time, dose: 25.0 mg/kg/injection, schedule: Q01DX009 (ip), vehicle: saline
[11] = endpoint: mean survival time, dose: 50.0 mg/kg/injection, schedule: Q01DX009 (ip), vehicle: saline
[12] = endpoint: mean survival time, dose: 100.0 mg/kg/injection, schedule: Q01DX001 (ip), vehicle: saline with Tween-80
[13] = endpoint: mean survival time, dose: 200.0 mg/kg/injection, schedule: Q01DX001 (ip), vehicle: saline with Tween-80
[14] = endpoint: mean survival time, dose: 12.5 mg/kg/injection, schedule: Q01DX005 (ip), vehicle: water
[15] = endpoint: mean survival time, dose: 25.0 mg/kg/injection, schedule: Q01DX005 (ip), vehicle: water
[16] = endpoint: mean survival time, dose: 50.0 mg/kg/injection, schedule: Q01DX005 (ip), vehicle: water
[17] = endpoint: mean survival time, dose: 100.0 mg/kg/injection, schedule: Q01DX005 (ip), vehicle: water
[18] = endpoint: mean survival time, dose: 200.0 mg/kg/injection, schedule: Q01DX005 (ip), vehicle: water
[19] = endpoint: mean survival time, dose: 400.0 mg/kg/injection, schedule: Q01DX001 (ip), vehicle: saline
[20] = endpoint: mean survival time, dose: 400.0 mg/kg/injection, schedule: Q01DX001 (ip), vehicle: saline with Tween-80

Measured: T/C

NCCCCCCN=C(N)C(N)=NCCCCCCN
inactive: endpoint: mean survival time, dose: 3.13 mg/kg/injection, schedule: Q04DX002 (ip), vehicle: saline 116 % of control | endpoint: mean survival time, dose: 6.25 mg/kg/injection, schedule: Q04DX002 (ip), vehicle: saline 90 % of control | endpoint: mean survival time, dose: 12.5 mg/kg/injection, schedule: Q04DX002 (ip), vehicle: saline 101 % of control

C1CC[N-]CC1.C1CC[N-]CC1.C1CC[N-]CC1.C1CC[N-]CC1.N#C[S-].N#C[S-].[Ni]
inactive: endpoint: mean survival time, dose: 10.0 mg/kg/injection, schedule: Q04DX003 (ip), vehicle: Klucel (hydroxypropylcellulose) (HPC) 90 % of control | endpoint: mean survival time, dose: 20.0 mg/kg/injection, schedule: Q04DX003 (ip), vehicle: Klucel (hydroxypropylcellulose) (HPC) 91 % of control | endpoint: mean survival time, dose: 40.0 mg/kg/injection, schedule: Q04DX003 (ip), vehicle: Klucel (hydroxypropylcellulose) (HPC) 96 % of control

CCOC(=O)c1ccnc2ccc(O)cc12
inactive: [1] 104 % of control | [2] 93 % of control | [3] 95 % of control

CCOC(=O)c1c(-c2ccccc2)csc1NS(=O)(=O)c1ccc(C)cc1
inactive: endpoint: mean survival time, dose: 75.0 mg/kg/injection, schedule: Q01DX001 (ip), vehicle: saline 96 % of control | endpoint: mean survival time, dose: 150.0 mg/kg/injection, schedule: Q01DX001 (ip), vehicle: saline 90 % of control | endpoint: mean survival time, dose: 300.0 mg/kg/injection, schedule: Q01DX001 (ip), vehicle: saline 101 % of control

CCOC(=O)C1CC(=O)C2/C(=C(\O)c3ccccc3)C=C([N+](=O)[O-])C1C2[N+](=O)[O-] (stereo not given)
inactive: [4] 94 % of control | [5] 94 % of control | [6] 96 % of control

CN(C)S(=O)(=O)C1(c2ccccc2)CCCC1
inactive: [7] 102 % of control | [8] 105 % of control | [9] 100 % of control

CS(C)(=O)=C/C(=C\C(=O)c1ccccc1)c1ccccc1
inactive: [10] 94 % of control | [11] 94 % of control | endpoint: mean survival time, dose: 100.0 mg/kg/injection, schedule: Q01DX009 (ip), vehicle: saline 94 % of control

CSc1ccc(NC(=O)Nc2nccs2)cc1
inactive: endpoint: mean survival time, dose: 100.0 mg/kg/injection, schedule: Q01DX009 (ip), vehicle: saline sonified 103 % of control | endpoint: mean survival time, dose: 200.0 mg/kg/injection, schedule: Q01DX009 (ip), vehicle: saline sonified 106 % of control | endpoint: mean survival time, dose: 400.0 mg/kg/injection, schedule: Q01DX009 (ip), vehicle: saline sonified 100 % of control

CS(=O)CCO (stereo not given)
inactive: endpoint: mean survival time, dose: 100.0 mg/kg/injection, schedule: Q04DX002 (ip), vehicle: saline 93 % of control | endpoint: mean survival time, dose: 200.0 mg/kg/injection, schedule: Q04DX002 (ip), vehicle: saline 107 % of control | endpoint: mean survival time, dose: 400.0 mg/kg/injection, schedule: Q04DX002 (ip), vehicle: saline 104 % of control

O=C(O)/C=C/c1ccc([N+](=O)[O-])o1
inactive: endpoint: mean survival time, dose: 25.0 mg/kg/injection, schedule: Q01DX001 (ip), vehicle: saline with Tween-80 96 % of control | endpoint: mean survival time, dose: 50.0 mg/kg/injection, schedule: Q01DX001 (ip), vehicle: saline with Tween-80 89 % of control | [12] 115 % of control and 98 % of control | [13] 94 % of control

CSc1cccc(NC(=O)OCCOc2ccc(NC(C)=O)cc2)c1
inactive: [1] 101 % of control | [2] 97 % of control | [3] 93 % of control

COc1cc(OC)c2c[n+](C)c3c4cc(OC)c(OC)cc4ccc3c2c1
inactive: endpoint: mean survival time, dose: 12.5 mg/kg/injection, schedule: Q01DX009 (ip), vehicle: saline 102 % of control | [10] 102 % of control | [11] 98 % of control

O=C1C(=O)c2ccccc2C(O)=C1C(C1=C(O)c2ccccc2C(=O)C1=O)c1ccccc1Br
inactive: endpoint: mean survival time, dose: 100.0 mg/kg/injection, schedule: Q01DX001 (ip), vehicle: saline sonified 98 % of control | [1] 86 % of control | endpoint: mean survival time, dose: 200.0 mg/kg/injection, schedule: Q01DX001 (ip), vehicle: saline sonified 102 % of control | endpoint: mean survival time, dose: 400.0 mg/kg/injection, schedule: Q01DX001 (ip), vehicle: saline sonified 91 % of control

Cc1cc(N/N=C/c2ccccn2)nc2ccccc12
inactive: endpoint: median survival time, dose: 6.25 mg/kg/injection, schedule: Q01DX009 (ip), vehicle: Klucel (hydroxypropylcellulose) (HPC) 102 % of control | endpoint: median survival time, dose: 12.5 mg/kg/injection, schedule: Q01DX009 (ip), vehicle: Klucel (hydroxypropylcellulose) (HPC) 100 % of control | endpoint: median survival time, dose: 25.0 mg/kg/injection, schedule: Q01DX009 (ip), vehicle: Klucel (hydroxypropylcellulose) (HPC) 97 % of control | endpoint: median survival time, dose: 50.0 mg/kg/injection, schedule: Q01DX009 (ip), vehicle: Klucel (hydroxypropylcellulose) (HPC) 110 % of control

O=c1c2ncn(C3CC(O)C(O)C(CO)O3)c2ncn1C1CC(O)C(O)C(CO)O1 (stereo not given)
inactive: [14] 108 % of control | [15] 97 % of control | [16] 100 % of control | [17] 97 % of control | [18] 97 % of control

CC(C)(C)OC(=O)NCCCCC(NC(=O)CNC(=O)C(CSC(c1ccccc1)(c1ccccc1)c1ccccc1)NC(=O)OC(C)(C)C)C(=O)O (stereo not given) (Boc-Cys(Trt)-Gly-Lys(Boc)-OH; configuration not given here)
inactive: endpoint: mean survival time, dose: 100.0 mg/kg/injection, schedule: Q04DX003 (ip), vehicle: saline sonified 86 % of control

CC12CCC(C(=O)C1)C1(C)CCCC(=O)C21 (stereo not given)
inactive: endpoint: mean survival time, dose: 75.0 mg/kg/injection, schedule: Q01DX001 (ip), vehicle: other 97 % of control

O=c1[nH]c(=O)n(C2CC(O)C(CO)O2)cc1S (stereo not given)
inactive: [14] 107 % of control | [15] 117 % of control | [16] 112 % of control | [17] 122 % of control | endpoint: mean survival time, dose: 133.0 mg/kg/injection, schedule: Q01DX005 (ip), vehicle: water 121 % of control | [18] 111 % of control | endpoint: mean survival time, dose: 300.0 mg/kg/injection, schedule: Q01DX005 (ip), vehicle: water 115 % of control

O=C(c1ccccc1)C(Sc1ccccc1)c1ccccc1 (stereo not given)
inactive: [7] 97 % of control | [8] 101 % of control | [9] 97 % of control

Cc1cn(CC(O)c2cc3ccccc3[nH]2)c(=O)[nH]c1=O (stereo not given)
inactive: [4] 97 % of control | [5] 97 % of control | [6] 93 % of control

O=C1OCC(Cl)=C1Cl
inactive: endpoint: mean survival time, dose: 6.25 mg/kg/injection, schedule: Q01DX009 (ip), vehicle: saline with Tween-80 96 % of control | endpoint: mean survival time, dose: 12.5 mg/kg/injection, schedule: Q01DX009 (ip), vehicle: saline with Tween-80 94 % of control | endpoint: mean survival time, dose: 25.0 mg/kg/injection, schedule: Q01DX009 (ip), vehicle: saline with Tween-80 98 % of control

[O-][n+]1cc(N=Nc2ccc(Cl)cc2)nn1-c1ccc(Cl)cc1
inactive: [19] 86 % of control

CCOC(=O)CNc1nc(Cl)nc(NCC(=O)OCC)n1
inactive: [12] 87 % of control | [13] 89 % of control | [20] 91 % of control

COc1ccc(/C=N/NC(=O)CNC(=O)Nc2cccc([N+](=O)[O-])c2)cc1
inactive: endpoint: mean survival time, dose: 50.0 mg/kg/injection, schedule: Q01DX009 (ip), vehicle: saline with Tween-80 89 % of control | [1] 93 % of control | [2] 93 % of control

CCOC(C=O)OCC
inactive: endpoint: mean survival time, dose: 100.0 mg/kg/injection, schedule: Q01DX001 (ip), vehicle: saline 103 % of control | endpoint: mean survival time, dose: 200.0 mg/kg/injection, schedule: Q01DX001 (ip), vehicle: saline 97 % of control | [19] 103 % of control

OC(Cc1ccccn1)c1ccccc1 (stereo not given)
inactive: [7] 95 % of control | [8] 101 % of control | [9] 98 % of control

CC(c1ccccc1)n1cncc1C(=O)O (stereo not given)
inactive: [12] 106 % of control | [13] 97 % of control | [20] 95 % of control

CN(C)c1ccc(-c2nc3ccccc3s2)cc1
inactive: endpoint: mean survival time, dose: 50.0 mg/kg/injection, schedule: Q01DX009 (ip), vehicle: Klucel (hydroxypropylcellulose) (HPC) 106 % of control | endpoint: mean survival time, dose: 100.0 mg/kg/injection, schedule: Q01DX009 (ip), vehicle: Klucel (hydroxypropylcellulose) (HPC) 96 % of control | endpoint: mean survival time, dose: 200.0 mg/kg/injection, schedule: Q01DX009 (ip), vehicle: Klucel (hydroxypropylcellulose) (HPC) 98 % of control

COC(=O)c1cccc(O)c1O
inactive: endpoint: mean survival time, dose: 100.0 mg/kg/injection, schedule: Q04DX002 (ip), vehicle: other 98 % of control | endpoint: mean survival time, dose: 200.0 mg/kg/injection, schedule: Q04DX002 (ip), vehicle: other 92 % of control | endpoint: mean survival time, dose: 400.0 mg/kg/injection, schedule: Q04DX002 (ip), vehicle: other 95 % of control

From PubChem BioAssay AID256 (DTP/NCI, 2004)
